One test has as its target T1, IKKε (Homo sapiens, UniProt Q14164).
T1 sequence (Q14164 1-716): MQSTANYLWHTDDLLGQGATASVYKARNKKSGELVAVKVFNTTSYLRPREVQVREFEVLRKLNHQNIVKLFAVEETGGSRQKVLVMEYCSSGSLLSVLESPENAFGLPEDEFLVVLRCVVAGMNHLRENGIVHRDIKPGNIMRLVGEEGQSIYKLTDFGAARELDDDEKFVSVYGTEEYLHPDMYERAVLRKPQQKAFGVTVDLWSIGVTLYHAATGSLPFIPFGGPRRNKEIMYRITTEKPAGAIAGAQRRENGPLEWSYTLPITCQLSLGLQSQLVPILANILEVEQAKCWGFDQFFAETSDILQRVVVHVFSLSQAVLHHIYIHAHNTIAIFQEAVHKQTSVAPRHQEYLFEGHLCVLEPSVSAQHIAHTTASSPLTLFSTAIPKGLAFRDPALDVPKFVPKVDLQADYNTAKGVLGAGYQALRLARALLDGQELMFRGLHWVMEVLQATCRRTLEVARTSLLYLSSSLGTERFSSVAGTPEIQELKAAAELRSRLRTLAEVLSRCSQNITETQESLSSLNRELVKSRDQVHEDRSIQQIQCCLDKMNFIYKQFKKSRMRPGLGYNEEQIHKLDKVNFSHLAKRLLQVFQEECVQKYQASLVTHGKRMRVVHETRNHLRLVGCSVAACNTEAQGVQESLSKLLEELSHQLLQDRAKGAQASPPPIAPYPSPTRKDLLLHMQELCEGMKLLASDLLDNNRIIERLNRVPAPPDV
Kind of test: IKKε biochemical assay. The settings on record: 10 point 1:4 dose response, 30 uM top concentration, 90 min at 25° C., LabChip EZ Reader II; read-out: IKKε_IC50. The gist of the method:
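Compounds in 1% DMSO final were incubated with IKKε enzyme and substrate at 25° C. for 90 min, then stopped. Substrate and product peaks were resolved by LabChip EZ Reader II mobility-shift read-out. Staurosporine at 10 uM final served as the full-inhibition control.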

In another test the target is T2, TBK1 (Homo sapiens, UniProt Q9UHD2).
T2 sequence (Q9UHD2 1-729): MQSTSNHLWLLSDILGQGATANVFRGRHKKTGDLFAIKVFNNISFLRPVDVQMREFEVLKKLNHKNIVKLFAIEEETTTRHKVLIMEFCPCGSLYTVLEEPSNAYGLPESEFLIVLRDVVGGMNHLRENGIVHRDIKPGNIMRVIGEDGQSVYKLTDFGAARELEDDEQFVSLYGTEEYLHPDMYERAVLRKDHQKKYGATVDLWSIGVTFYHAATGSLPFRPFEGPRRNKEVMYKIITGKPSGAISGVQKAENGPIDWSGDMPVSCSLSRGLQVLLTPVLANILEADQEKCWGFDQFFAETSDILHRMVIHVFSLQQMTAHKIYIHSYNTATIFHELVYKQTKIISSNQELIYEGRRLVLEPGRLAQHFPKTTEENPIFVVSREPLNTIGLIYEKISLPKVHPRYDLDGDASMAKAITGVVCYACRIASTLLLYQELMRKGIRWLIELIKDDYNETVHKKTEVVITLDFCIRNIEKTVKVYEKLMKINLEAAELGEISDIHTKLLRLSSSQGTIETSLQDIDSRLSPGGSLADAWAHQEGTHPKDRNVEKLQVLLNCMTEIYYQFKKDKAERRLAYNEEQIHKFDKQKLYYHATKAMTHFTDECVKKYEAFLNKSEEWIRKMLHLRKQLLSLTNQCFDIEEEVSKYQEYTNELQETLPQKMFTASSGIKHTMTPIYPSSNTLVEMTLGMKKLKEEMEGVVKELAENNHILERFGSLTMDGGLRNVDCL
Kind of test: TBK biochemical assay. Conditions: 10 point 1:4 dose response, 30 uM top concentration, 90 min at 25° C., LabChip EZ Reader II; read-out: TBK1_IC50. The gist of the method:
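Substrate and product were separated and quantified by microfluidic mobility-shift read (LabChip). 10 uM staurosporine served as the full-inhibition control, and the reference compound was tested from 1 uM final.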

This note sets out measurements from patent publication US20230019491A1, “PYRIMIDINE TBK/IKKe INHIBITOR COMPOUNDS AND USES THEREOF” (Merck Patent GmbH, priority 2017, published 2023).

A value given as a limit tells only on which side of the number the result lay.

Turning to `COc1nc(Nc2nccc(-c3ccc(OC4COC4)c(C#N)c3)n2)ccc1N1CCN(C2COC2)CC1` [Example 160, 5-[2-([6-methoxy-5-[4-(oxetan-3-yl)piperazin-1-yl]pyridin-2-yl]amino)pyrimidin-4-yl]-2-(oxetan-3-yloxy)benzonitrile], the IC50 on IKKε and at TBK1 was 100 to 1000 nM throughout.

On to `COc1cc(Nc2nccc(-c3ccc(OC4CCN(C(=O)[C@@H](C)O)CC4)c(C#N)c3)n2)ncc1N1CCN(C2COC2)CC1` [Example 319, 2-([1-[(2R)-2-hydroxypropanoyl]piperidin-4-yl]oxy)-5-[2-([4-methoxy-5-[4-(oxetan-3-yl)piperazin-1-yl]pyridin-2-yl]amino)pyrimidin-4-yl]benzonitrile], for which the IC50 at IKKε was in the range of 100 to 1000 nM; on TBK1, 1000 to 5000 nM.

Turning to `COc1nc(Nc2nccc(-c3ccc(OC4CCNCC4)c(C#N)c3)n2)ccc1N1CCN(C)CC1` [Example 89, 5-(2-[[6-methoxy-5-(4-methylpiperazin-1-yl)pyridin-2-yl]amino]pyrimidin-4-yl)-2-(piperidin-4-yloxy)benzonitrile], the IC50 at IKKε and at TBK1 was less than 100 nM in each case.

Take `COc1cc(Nc2nccc(-c3cc(C#N)c(OC4CCOCC4)cn3)n2)ncc1C(=O)N(C)C` [Example 51, 6-([4-[4-cyano-5-(oxan-4-yloxy)pyridin-2-yl]pyrimidin-2-yl]amino)-4-methoxy-N,N-dimethylpyridine-3-carboxamide]: the IC50 on IKKε and on TBK1 was more than 5000 nM each time.

Take `COc1nc(Nc2nccc(-c3ccc(O[C@@H]4CCN(C(=O)[C@H](C)O)C[C@@H]4F)c(C#N)c3)n2)ccc1C1CCN(C2COC2)CC1` [Example 194, 2-[(3S,4R)-3-Fluoro-1-((S)-2-hydroxy-propionyl)-piperidin-4-yloxy]-5-[2-(2-methoxy-1′-oxetan-3-yl-1′,2′,3′,4′,5′,6′-hexahydro-[3,4′]bipyridinyl-6-ylamino)-pyrimidin-4-yl]-benzonitrile]: the IC50 on IKKε and on TBK1 was less than 100 nM in each case.

On to `COc1nc(Nc2nccc(-c3ccc(O[C@H]4CCN(C(=O)C(C)O)C[C@H]4F)c(C#N)c3)n2)ccc1N1CCN(C2COC2)CC1` (stereo partly drawn) [Example 190, 2-[[(3R,4S)-3-fluoro-1-(2-hydroxypropanoyl)piperidin-4-yl]oxy]-5-[2-([6-methoxy-5-[4-(oxetan-3-yl)piperazin-1-yl]pyridin-2-yl]amino)pyrimidin-4-yl]benzonitrile], for which the IC50 at IKKε and at TBK1 was less than 100 nM each time.

In the case of `COc1nc(Nc2ncc(C)c(-c3ccc(O[C@@H]4CCN(C(=O)[C@H](C)O)CC4(F)F)c(C#N)c3)n2)ccc1N1CCN(C2COC2)CC1` [Example 285, 2-[[(4R)-3,3-difluoro-1-[(2S)-2-hydroxypropanoyl]piperidin-4-yl]oxy]-5-[2-([6-methoxy-5-[4-(oxetan-3-yl)piperazin-1-yl]pyridin-2-yl]amino)-5-methylpyrimidin-4-yl]benzonitrile], the IC50 at IKKε and on TBK1 was 100 to 1000 nM each time.

Take `CN1CCN(c2ccc(Nc3nccc(-c4ccc(OC5CCN(C)CC5(F)F)c(C#N)c4)n3)nc2)CC1` (stereo not shown) [Example 85, 2-[(3,3-difluoro-1-methylpiperidin-4-yl)oxy]-5-(2-[[5-(4-methylpiperazin-1-yl)pyridin-2-yl]amino]pyrimidin-4-yl)benzonitrile]: the IC50 on IKKε and at TBK1 was 100 to 1000 nM in each case.

For the compound `COc1nc(Nc2nccc(-c3ccc(OC4CCNCC4(F)F)c(C#N)c3)n2)ccc1N1CCN(C2COC2)[C@@H](C)C1` (stereo partly drawn) [Example 123, 2-(3,3-Difluoro-piperidin-4-yloxy)-5-{2-[6-methoxy-5-((S)-3-methyl-4-oxetan-3-yl-piperazin-1-yl)-pyridin-2-ylamino]-pyrimidin-4-yl}-benzonitrile], the IC50 on IKKε and at TBK1 was less than 100 nM in each case.

For the compound `CN(C)C(=O)c1ccc(Nc2nccc(-c3ccc(OC4CCOCC4)c(C#N)c3)n2)nc1` [Example 22, 6-([4-[3-cyano-4-(oxan-4-yloxy)phenyl]pyrimidin-2-yl]amino)-N,N-dimethylpyridine-3-carboxamide], the IC50 at IKKε and at TBK1 was 100 to 1000 nM throughout.

Regarding `COc1cc(Nc2nccc(-c3ccc(O[C@H]4CCN(C(=O)[C@@H](C)O)CC4(F)F)c(C#N)c3)n2)ccn1` [Example 230, 2-((S)-3,3-difluoro-1-((R)-2-hydroxypropanoyl)piperidin-4-yloxy)-5-(2-(2-methoxypyridin-4-ylamino)pyrimidin-4-yl)benzonitrile], the figures for the IC50 on IKKε and on TBK1 were less than 100 nM and 100 to 1000 nM, respectively.

`N#Cc1cc(-c2ccnc(Nc3ccc(C4CCN(C5COC5)CC4)cc3)n2)ccc1OC1CCOCC1` [Example 151, 5-{2-[4-(1-Oxetan-3-yl-piperidin-4-yl)-phenylamino]-pyrimidin-4-yl}-2-(tetrahydro-pyran-4-yloxy)-benzonitrile]: the IC50 on IKKε and at TBK1 was less than 100 nM in each case.

With `COc1nc(Nc2nccc(-c3ccc(OC4CCOCC4)c(C#N)c3)n2)ccc1N1CCN(CCO)CC1` [Example 167, 5-[2-([5-[4-(2-hydroxyethyl)piperazin-1-yl]-6-methoxypyridin-2-yl]amino)pyrimidin-4-yl]-2-(oxan-4-yloxy)benzonitrile], the IC50 at IKKε and at TBK1 was less than 100 nM each time.

As for `COc1nc(Nc2ncc(F)c(-c3ccc(O[C@H]4CCN(C(=O)C(C)O)C[C@H]4F)c(C#N)c3)n2)ccc1N1CCN(C2COC2)CC1` (stereo in doubt) [Example 297, 2-{[3-fluoro-1-(2-hydroxypropanoyl)piperidin-4-yl]oxy}-5-[5-fluoro-2-({6-methoxy-5-[4-(oxetan-3-yl)piperazin-1-yl]pyridin-2-yl}amino)pyrimidin-4-yl]benzonitrile], the IC50 on IKKε and on TBK1 was less than 100 nM throughout.

On to `COc1nc(Nc2nccc(-c3ccc(OC4(C)CCN(C(=O)[C@@H](O)CO)CC4(F)F)c(C#N)c3)n2)ccc1N1CCN(C2COC2)CC1` (stereo partly drawn) [Example 264, 2-[1-((S)-2,3-Dihydroxy-propionyl)-3,3-difluoro-4-methyl-piperidin-4-yloxy]-5-{2-[6-methoxy-5-(4-oxetan-3-yl-piperazin-1-yl)-pyridin-2-ylamino]-pyrimidin-4-yl}-benzonitrile], for which the IC50 at IKKε and on TBK1 was less than 100 nM throughout.

In the case of `COc1nc(Nc2nccc(-c3ccc(OC4CCOCC4)c(C#N)c3)n2)ccc1N1CCN(C2COC2)CC1` [Example 169, 5-{2-[6-Methoxy-5-(4-oxetan-3-yl-piperazin-1-yl)-pyridin-2-ylamino]-pyrimidin-4-yl}-2-(tetrahydro-pyran-4-yloxy)-benzonitrile], the IC50 at IKKε and on TBK1 was less than 100 nM in each case.

In the case of `COc1nc(Nc2nccc(-c3ccc(O[C@@H]4CCN(C(=O)[C@H](C)O)C[C@H]4F)c(C#N)c3)n2)ccc1C1CCN(C2COC2)CC1` [Example 192, 2-[(3R,4R)-3-Fluoro-1-((S)-2-hydroxy-propionyl)-piperidin-4-yloxy]-5-[2-(2-methoxy-1′-oxetan-3-yl-1′,2′,3′,4′,5′,6′-hexahydro-[3,4′]bipyridinyl-6-ylamino)-pyrimidin-4-yl]-benzonitrile], the IC50 on IKKε and on TBK1 was less than 100 nM each time.
